Source: publication PMC9316000, “Preclinical Drug Pharmacokinetic, Tissue Distribution and Excretion Profiles of the Novel Limonin Derivate HY-071085 as an Anti-Inflammatory and Analgesic Candidate in Rats and Beagle Dogs” (Pharmaceuticals, 2022)

Columns and labels:
[1] = Pharmacokinetics after repeated-dose intragastric administration in beagle dogs; assay type: in vivo; settings: R-IG 2.5 mg/kg
Method: AUC0-∞ was 195.41 ± 90.03 and 728.57 ± 270.64 h∙ng/mL, respectively (Table 2, Figure 10). […] On the fifth and seventh days before administration, the plasma concentration (valley concentration) was mostly below the lower limit of quantification (1 ng/mL).
In vivo PK profiling in dogs: Beagle dogs (approximately 8–10 kg in weight) were purchased from Jiangsu Yadong Experimental Animal Research Institute Co. Ltd (Nanjing, China). Before the experiment, several beagle dogs were randomly divided into several groups, half males and half females in each group. Four cycles of single-dose administration experiments were carried out, and the cleaning period was 3–5 days. Repeated-dose administration was carried out after the end of four cycles of single-dose administrations and cleaning periods. According to the dosage for the rats, the dosage for the beagle dogs was converted via the body surface area method. The HY-071085 active pharmaceutical ingredients were administered with a dosage volume of 2 mL/kg body weight. The whole-blood samples were centrifuged at 8000 rpm for 5 min, and the plasma samples were separated and stored at –80 °C until the analysis.
According to the obtained plasma concentration time data, the pharmacokinetic parameters were calculated using Phoenix WinNonlin 8.1 software. The pharmacokinetic parameters—i.e., the area under the curve (AUC), mean residence time (MRT), clearance rate (Cl/F) and steady-state apparent distribution volume (Vss/F)—were calculated by the method of moments, which was estimated according to the following formulae: AUCtn=∑Ci+Ci−1ti−ti−1/2 AUC∞=AUCtn+Cm/λ AUMCtn=∑tiCi+ti−1Ci−1ti−ti−1/2 AUMC∞=AUMCtn+Ctntn/λ+1/λ^2 MRT=AUMC∞/AUC∞ Cl/F=Dose/AUC Vss/F=Cl∗MRT where Ctn is the plasma concentration of tn at the last point after administration, and the elimination rate constant was obtained by ln(concentration) time linear regression.
Due to the drug having significant individual differences in rats, it could not be uniformly fitted with a PK atrioventricular model; as such, the pharmacokinetic parameters analyzed in this study were calculated using a non-atrioventricular model. The pharmacokinetic parameters are defined as follows: Cmax is the maximum blood concentration after administration and absorption, Tmax is the time required to reach Cmax, t1/2 is the time required to eliminate half of the plasma drug concentration after the drug distribution in the body reaches equilibrium, Cl/F is the apparent clearance rate, AUC0-tn is the area under the blood concentration time curve within the dosing interval, AUC0-∞ is the area under the plasma concentration time curve from 0 to infinity, MRT is the average time that all drug molecules stay in the body, and Vss/F is the steady-state apparent distribution volume, which is the product of the clearance rate and average residence time.

[2] = Plasma protein binding, human plasma; assay type: in vitro ADME; settings: mean, read-out: plasma protein binding rate (converted)
Method: The PPB rate in dogs was about 40% at different concentrations in the concentration range (50–400 ng/mL), and in rats it was about 75%. The PPB rate in human plasma varied greatly at different concentrations, ranging from 100% at a low drug concentration to 58% at a high drug concentration, as shown in Table 4.

[3] = parameters: method as in earlier work; settings: Temp 25℃, pH 7.4; cited from earlier work
[4] = both sexes, dog, plasma, po, 7 d

Compound: CC1(C)OC2CC(=O)OCC23C1C/C(=N\OCCN1CCOCC1)C1(C)C3CC[C@@]2(C)[C@H](c3ccoc3)OC(=O)C3OC312 (stereo partly drawn) [HY-071085, (12S,12aS,E)-12-(furan-3-yl)-6,6,8a,12a-tetramethyl-8-((2-morpholinoethoxy)imino)dodecahydro-1H,3H-oxireno [2,3-d]pyrano [4’,3’:3,3a]isobenzofuro [5,4-f]isochromene-3,10(9aH)-dione]
- plasma concentration (valley concentration) before administration ([1]; fifth and seventh days, mostly below the lower limit of quantification): < 1 ng/mL
- AUC(0-inf) [1, 4]: 729 ± 271 ng·h/mL
- CL/F at 7 d [1, 4]: 32.3 mL/min/kg
- Cmax at 7 d [1, 4]: 445 ± 135 ng/mL
- MRT at 7 d [1, 4]: 1.58 ± 0.14 h
- Tmax at 7 d [1, 4]: 0.27 ± 0.15 h
- half-life at 7 d [1, 4]: 1.08 ± 0.13 h
- AUC ([1]; both sexes, dog, plasma, po, 7 d, read-out: AUC0-tn): 723 ± 270 ng·h/mL
- Vd/F at 7 d ([1]; both sexes, dog, plasma, po, 7 d, read-out: Vss/F): 3.04 ± 1.19 L/kg
- fraction unbound at 100 ng/mL ([2]; 100 ng/mL): 0.267
- fraction unbound at 200 ng/mL ([2]; 200 ng/mL): 0.325
- fraction unbound at 400 ng/mL ([2]; 400 ng/mL): 0.384
- LogD [3]: 2.45
